The values below come from ChEMBL document CHEMBL4265894, “Developing potential Helicobacter pylori urease inhibitors from novel oxoindoline derivatives: Synthesis, biological evaluation and in silico study” (Bioorg Med Chem Lett, 2018).

The structures appear in SMILES notation. Converted amounts (≈) assume the structure as drawn.

One series has as its target Urease (Helicobacter pylori, UniProt Q0PXQ5). In words: Inhibition of Helicobacter pylori urease after 50 mins by indophenol method.
Series [1] is described as follows: Cytotoxicity against HEK293T cells after 24 hrs by MTT assay. The settings on record: human. It is filed as cell-based, HEK-293T.
Series [2] is described as follows: Cytotoxicity against human LO2 cells after 24 hrs by MTT assay. It counts as cell-based, L02.
For the next series, the system named is Helicobacter pylori. Kind of series: Antibacterial activity against Helicobacter pylori after 48 hrs. It is filed as functional.

Sequence of Urease (Q0PXQ5 whole entry): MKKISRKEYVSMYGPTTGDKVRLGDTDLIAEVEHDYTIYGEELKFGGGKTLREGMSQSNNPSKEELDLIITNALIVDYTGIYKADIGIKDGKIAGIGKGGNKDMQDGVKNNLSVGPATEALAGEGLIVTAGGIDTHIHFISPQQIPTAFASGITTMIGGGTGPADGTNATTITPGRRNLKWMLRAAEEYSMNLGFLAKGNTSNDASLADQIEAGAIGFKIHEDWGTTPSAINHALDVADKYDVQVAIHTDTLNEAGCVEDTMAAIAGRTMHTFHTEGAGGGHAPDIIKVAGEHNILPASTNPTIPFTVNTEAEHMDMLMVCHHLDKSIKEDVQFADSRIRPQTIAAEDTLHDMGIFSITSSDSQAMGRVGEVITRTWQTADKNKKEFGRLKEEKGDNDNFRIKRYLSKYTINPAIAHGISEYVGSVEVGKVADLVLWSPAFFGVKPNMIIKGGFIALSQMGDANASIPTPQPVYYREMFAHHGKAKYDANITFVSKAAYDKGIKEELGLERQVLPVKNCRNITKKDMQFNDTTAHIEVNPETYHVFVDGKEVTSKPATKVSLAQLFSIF

On to `COc1ccc(C(=O)N/N=C2/C(=O)N(CC=C(C)C)c3ccccc32)cc1OC`, for which the concentration for half-maximal inhibition (IC50) against Urease was 0.71 µM. For the same molecule, the concentration for 50% growth inhibition (GI50) at 24 h in series [1] was 184 µM; in series [2], 178 µM. This molecule also came in with an MIC with Helicobacter pylori of 0.48 µM (≈ 0.189 µg/mL).

On to `CC(C)=CCN1C(=O)/C(=N/NC(=O)c2ccc(Cl)cc2)c2ccccc21`, for which, at Urease, half-maximal inhibition (IC50) was put at 143 µM. Also, the concentration for 50% growth inhibition (GI50) at 24 h in series [1] and in series [2] was more than 200 µM throughout. In the series with Helicobacter pylori, this molecule displayed an MIC of 185 µM (≈ 68 µg/mL).

Turning to `CC(C)=CCN1C(=O)/C(=N/NC(=O)c2cc(C)cc(C)c2)c2ccccc21`, half-maximal inhibition against Urease (IC50) required 4.38 µM. Moreover, it took 6.75 µM (≈ 2.44 µg/mL) to inhibit growth in the series with Helicobacter pylori (MIC).

`COc1cccc(C(=O)N/N=C2/C(=O)N(CC=C(C)C)c3ccccc32)c1` had a half-inhibitory concentration (IC50) at Urease of 8.21 µM. The minimal inhibitory concentration (MIC) in the series on Helicobacter pylori was determined as 15.2 µM (≈ 5.52 µg/mL).

Molecule `CC(C)=CCN1C(=O)/C(=N/NC(=O)c2cccc(Cl)c2)c2ccccc21` registered an IC50 at Urease of 38.1 µM. Moreover, the MIC in the series on Helicobacter pylori was found to be 72.5 µM (≈ 26.7 µg/mL).

On Urease, `CC(C)=CCN1C(=O)/C(=N/NC(=O)c2ccccc2)c2ccccc21` yielded a concentration for half-maximal inhibition (IC50) of 129 µM. The same molecule gave a minimum inhibitory concentration (MIC) against Helicobacter pylori of 171 µM (≈ 57 µg/mL).

At Urease, `CC(C)=CCN1C(=O)/C(=N/NC(=O)c2ccc(C)cc2)c2ccccc21` yielded an IC50 of 29.9 µM. In the series on Helicobacter pylori, this molecule yielded a minimal inhibitory concentration (MIC) of 58.1 µM (≈ 20.2 µg/mL).

`COc1ccc(C(=O)N/N=C2/C(=O)N(CC=C(C)C)c3ccccc32)cc1F`: the IC50 against Urease amounted to 3.82 µM. The concentration for 50% growth inhibition (GI50) at 24 h was 169 µM in series [1] and more than 200 µM in series [2]. For the same molecule, the lowest concentration to inhibit growth with Helicobacter pylori (MIC) was 3.94 µM (≈ 1.5 µg/mL).

`CC(C)=CCN1C(=O)/C(=N/Nc2ccccc2)c2ccccc21`: at Urease, the IC50 is more than 300 µM. Besides, the GI50 at 24 h in series [1] and in series [2] was more than 200 µM throughout. Further, in the series on Helicobacter pylori, the minimal inhibitory concentration (MIC) was more than 200 µM.

At Urease, `CC(C)=CCN1C(=O)/C(=N/NC(=O)c2ccc(C(F)(F)F)cc2)c2ccccc21` showed an IC50 of 44.1 µM. Also, the MIC against Helicobacter pylori worked out at 83.9 µM (≈ 33.7 µg/mL).

At Urease, `CC(C)=CCN1C(=O)/C(=N/NC(=O)c2ccc(Oc3ccccc3)cc2)c2ccccc21` returned an IC50 of 22.7 µM. The same molecule came in with an MIC with Helicobacter pylori of 41.8 µM (≈ 17.8 µg/mL).

For `CC(C)=CCN1C(=O)/C(=N/NC(=O)c2ccc(C(C)C)cc2)c2ccccc21`, the 50% inhibitory concentration (IC50) against Urease was found to be 14.9 µM. The molecule further had an MIC in the series on Helicobacter pylori of 27.5 µM (≈ 10.3 µg/mL).

For the molecule `Cc1ncc([N+](=O)[O-])n1CCO` [METRONIDAZOLE], 31.3 µM (≈ 5.36 µg/mL) was the least that counted as inhibitory with Helicobacter pylori (MIC).

`CC(C)=CCN1C(=O)/C(=N/NC(=O)c2cccc(Br)c2)c2ccccc21`: the IC50 on Urease was found to be 27.6 µM. In addition, the MIC against Helicobacter pylori was determined as 50.5 µM (≈ 20.8 µg/mL).

In the case of `CC(C)=CCN1C(=O)/C(=N/NC(=O)c2ccc(C(C)(C)C)cc2)c2ccccc21`, 19.5 µM corresponded to half-maximal inhibition against Urease (IC50). Also, in the series on Helicobacter pylori, the minimum inhibitory concentration (MIC) stood at 30.8 µM (≈ 12 µg/mL).

For the molecule `COc1ccc(C(=O)N/N=C2/C(=O)N(CC=C(C)C)c3ccccc32)cc1`, at Urease, the 50% inhibitory concentration (IC50) worked out at 6.99 µM. This molecule showed an MIC with Helicobacter pylori of 10.3 µM (≈ 3.74 µg/mL).

On Urease, `CC(C)=CCN1C(=O)/C(=N/NC(=O)c2cccc(C(F)(F)F)c2)c2ccccc21` yielded an IC50 of 65.8 µM. Besides, the MIC against Helicobacter pylori was 108 µM (≈ 43.3 µg/mL).

Turning to `CC(C)=CCN1C(=O)/C(=N/NC(=O)c2ccc(Br)cc2)c2ccccc21`, 83.9 µM corresponded to half-maximal inhibition against Urease (IC50). The molecule also registered an MIC in the series on Helicobacter pylori of 137 µM (≈ 56.5 µg/mL).

`COc1cc(OC)cc(C(=O)N/N=C2/C(=O)N(CC=C(C)C)c3ccccc32)c1`: the IC50 on Urease came out at 1.35 µM. Further, the 50% growth inhibitory concentration (GI50) at 24 h in series [1] came out at 176 µM; in series [2] it was 188 µM. The lowest concentration to inhibit growth in the series on Helicobacter pylori (MIC) was 1.96 µM (≈ 0.771 µg/mL).

`CC(C)=CCN1C(=O)/C(=N/NC(=O)c2ccc(F)cc2)c2ccccc21` had a 50% inhibitory concentration (IC50) against Urease of 154 µM. The GI50 at 24 h is 195 µM in series [1] and more than 200 µM in series [2]. Moreover, the minimum inhibitory concentration (MIC) against Helicobacter pylori is more than 200 µM.

Turning to `COc1ccccc1C(=O)N/N=C1/C(=O)N(CC=C(C)C)c2ccccc21`, the midpoint of inhibition against Urease, the IC50, lay at 11.7 µM. The same molecule registered an MIC in the series with Helicobacter pylori of 19.5 µM (≈ 7.09 µg/mL).

Molecule `CC(=O)NO` [ACETOHYDROXAMIC ACID] displayed a concentration for half-maximal inhibition (IC50) against Urease of 17.2 µM.
